# From patent US5212163A, “Compounds” (Beecham Group p.l.c., priority 1989, dated 1993)
# Biological target: rabbit bone collagenase (Oryctolagus cuniculus, UniProt P13943)
# Assay: biochemical
# Experimental: The test is performed essentially as in Cawston and Barrett Anal. Biochem. 99, 340-345 (1979). Compounds for testing are dissolved in methanol and added to purified rabbit bone collagenase or human collagenase purified from culture supernatants from the human lung fibroblast cell line, WI-38, diluted in a suitable aqueous buffer. After a 5 min pre-incubation at 37° C., the assay tubes are cooled to 4° C. and ^14 C-acetylated rat skin Type I collagen is added. The assay tubes are incubated at 37° C. overnight. The ^14 C-collagen forms insoluble fibrils which are the substrate for the enzyme.
# To terminate the assay, the assay tubes are spun at 12000 rpm for 25 min. Undigested ^14 C-collagen remains as insoluble fibrils and is pelleted, while digested ^14 C-collagen remains as soluble peptides in the supernatant. A sample of the supernatant is taken for liquid scintillation counting.
# Sequence of rabbit bone collagenase (P13943 99-468): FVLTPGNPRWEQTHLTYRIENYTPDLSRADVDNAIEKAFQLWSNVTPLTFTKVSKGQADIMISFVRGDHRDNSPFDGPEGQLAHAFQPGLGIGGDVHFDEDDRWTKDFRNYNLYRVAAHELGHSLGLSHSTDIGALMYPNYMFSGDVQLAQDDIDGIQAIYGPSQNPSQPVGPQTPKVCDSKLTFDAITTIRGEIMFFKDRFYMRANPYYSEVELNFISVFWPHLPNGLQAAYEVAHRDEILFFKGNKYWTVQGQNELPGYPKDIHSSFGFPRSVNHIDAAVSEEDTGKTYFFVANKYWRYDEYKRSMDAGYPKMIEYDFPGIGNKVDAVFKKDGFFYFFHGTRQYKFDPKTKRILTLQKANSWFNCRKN
row,SMILES,IC50 [nM]
1,"COC(=O)[C@H](C)NC(=O)[C@H](Cc1c[nH]c2ccccc12)NC(=O)[C@H](CC(C)C)NC(C)P(=O)(O)O (stereo partly drawn) [Example E1, N-[N-[N-(1-Phosphonoethyl)-leucyl]-(S)-tryptophyl]-(S)-alanine, methyl ester]",2400
2,"COC(=O)[C@H](C)NC(=O)[C@H](Cc1ccc(OC)cc1)NC(=O)[C@H](CC(C)C)NC(C)P(=O)(O)O (stereo partly drawn) [Example E2, N-[N-[N-(1-Phosphonoethyl)-leucyl]-O-methyl-(S)-tyrosyl]-(S)-alanine, methyl ester]",3100
